Test results published in the supplement of paper PMC10307832.

Tests used:
Test in all cases: relative viability (nuclei count vs DMSO), 5 days (fraction); higher = more cells survive
IPA-3 + Tozasertib = compound: C1=CC=C2C(=C1)C=CC(=C2SSC3=C(C=CC4=CC=CC=C43)O)O [IPA-3] + Cc1cc(Nc2cc(N3CCN(C)CC3)nc(Sc3ccc(NC(=O)C4CC4)cc3)n2)n[nH]1 [Tozasertib] (partner 0.1 µM)
Summary of the method: (§1)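 Medians of duplicate plates are given as relative viability. That measure is the nuclei count in treated wells divided by the count in vehicle wells. Counts were taken on 4× images of lung cancer cell lines in 1536-well plates, 5 days after pin-tool dosing the day after seeding with one drug alone or a fixed anchor-drug dose plus five library-drug doses (not always all listed) in √10 steps.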

IPA-3 + Vorinostat = compound: C1=CC=C2C(=C1)C=CC(=C2SSC3=C(C=CC4=CC=CC=C43)O)O [IPA-3] + O=C(CCCCCCC(=O)Nc1ccccc1)NO [Vorinostat] (partner 1 µM)
Summary of the method: as §1

Doramapimod + Linsitinib = compound: Cc1ccc(-n2nc(C(C)(C)C)cc2NC(=O)Nc2ccc(OCCN3CCOCC3)c3ccccc23)cc1 [Doramapimod] + C[C@]1(O)C[C@@H](c2nc(-c3ccc4ccc(-c5ccccc5)nc4c3)c3c(N)nccn32)C1 [Linsitinib] (partner 1 µM)
Summary of the method: as §1

RAF265 + Phenformin = compound: Cn1c(Nc2ccc(C(F)(F)F)cc2)nc2cc(Oc3ccnc(-c4ncc(C(F)(F)F)[nH]4)c3)ccc21 [RAF265] + N=C(N)NC(=N)NCCc1ccccc1 [Phenformin] (partner 250 µM)
Summary of the method: as §1

| Cell Line | relative viability (IPA-3 + Tozasertib; first compound 0.2 µM) | relative viability (IPA-3 + Tozasertib; first compound 0.6325 µM) | relative viability (IPA-3 + Tozasertib; first compound 2 µM) | relative viability (IPA-3 + Tozasertib; first compound 6.325 µM) | relative viability (IPA-3 + Tozasertib; first compound 20 µM) | relative viability (IPA-3 + Vorinostat; first compound 0.2 µM) | relative viability (IPA-3 + Vorinostat; first compound 0.6325 µM) | relative viability (IPA-3 + Vorinostat; first compound 2 µM) | relative viability (IPA-3 + Vorinostat; first compound 6.325 µM) | relative viability (IPA-3 + Vorinostat; first compound 20 µM) | relative viability (Doramapimod + Linsitinib; first compound 0.02 µM) | relative viability (Doramapimod + Linsitinib; first compound 0.06325 µM) | relative viability (Doramapimod + Linsitinib; first compound 0.2 µM) | relative viability (Doramapimod + Linsitinib; first compound 0.6325 µM) | relative viability (Doramapimod + Linsitinib; first compound 2 µM) | relative viability (RAF265 + Phenformin; first compound 0.01 µM) | relative viability (RAF265 + Phenformin; first compound 0.03162 µM) | relative viability (RAF265 + Phenformin; first compound 0.1 µM) | relative viability (RAF265 + Phenformin; first compound 0.3162 µM) | relative viability (RAF265 + Phenformin; first compound 1 µM) |
| --- | --- | --- | --- | --- | --- | --- | --- | --- | --- | --- | --- | --- | --- | --- | --- | --- | --- | --- | --- | --- |
| NCI-H1395 | 0.732 | 0.761 | 0.72 | 0.733 | 0.8 | 0.679 | 0.754 | 0.588 | 0.635 | 0.747 | 1.11 | 1.04 | 1.17 | 1.13 | 0.997 | 0.438 | 0.444 | 0.423 | 0.409 | 0.387 |
| NCI-H1437 | 0.482 | 0.387 | 0.416 | 0.394 | 0.468 | 0.863 | 0.644 | 0.691 | 0.783 | 0.826 | 1.03 | 0.982 | 0.968 | 1.17 | 0.947 | 0.352 | 0.388 | 0.287 | 0.329 | 0.242 |
| NCI-H1651 | 0.727 | 0.613 | 0.883 | 0.708 | 0.691 | 0.608 | 0.612 | 0.61 | 0.645 | 0.592 | 0.92 | 0.844 | 0.923 | 0.977 | 0.917 | 0.369 | 0.334 | 0.316 | 0.294 | 0.295 |
| NCI-H1666 | 0.611 | 0.604 | 0.594 | 0.6 | 0.703 | 1.07 | 1.06 | 1.07 | 1.04 | 1.03 | 0.871 | 0.883 | 0.847 | 0.781 | 0.738 | 0.597 | 0.343 | 0.567 | 0.579 | 0.559 |
| NCI-H1734 | 0.275 | 0.269 | 0.251 | 0.306 | 0.23 | 0.922 | 0.761 | 0.799 | 0.726 | 0.638 | 0.864 | 0.755 | 0.721 | 0.767 | 0.662 | 0.458 | 0.376 | 0.32 | 0.317 | 0.257 |
| NCI-H1755 | 0.586 | 0.568 | 0.552 | 0.561 | 0.504 | 0.863 | 0.61 | 0.694 | 0.63 | 0.704 | 0.982 | 1 | 1.02 | 1.05 | 0.996 | 0.612 | 0.59 | 0.571 | 0.459 | 0.432 |
| NCI-H1793 | 0.316 | 0.271 | 0.368 | 0.377 | 0.425 | 1.12 | 0.714 | 0.64 | 0.712 | 0.687 | 0.758 | 0.76 | 0.827 | 0.932 | 0.719 | 0.352 | 0.351 | 0.298 |  | 0.262 |
| NCI-H1915 | 0.466 | 0.425 | 0.446 | 0.428 | 0.513 | 0.581 | 0.497 | 0.505 | 0.492 | 0.533 | 1.1 | 1.17 | 1.1 | 1.12 | 1.09 | 0.364 | 0.341 | 0.265 | 0.203 | 0.183 |
| NCI-H1944 | 0.263 | 0.268 | 0.264 | 0.246 | 0.26 | 0.674 | 0.492 | 0.479 | 0.574 | 0.527 | 1.05 | 1.14 | 1.03 | 1.31 | 1.08 | 0.192 | 0.202 | 0.184 | 0.168 | 0.143 |
| NCI-H1975 | 0.833 | 0.685 | 0.855 | 0.906 | 0.755 | 0.791 | 0.672 | 0.712 | 0.83 | 0.831 | 1.07 | 0.956 | 0.885 | 0.98 | 0.926 | 0.386 | 0.343 | 0.284 | 0.251 | 0.205 |
| NCI-H1993 | 0.625 | 0.578 | 0.586 | 0.56 | 0.601 | 1.15 | 0.639 | 0.758 | 0.725 | 0.918 | 0.663 | 0.708 | 0.795 | 0.753 | 0.755 | 0.455 | 0.586 | 0.502 | 0.603 | 0.479 |
| NCI-H2009 | 0.805 | 0.681 | 0.834 | 0.718 | 0.725 | 0.858 | 0.685 | 0.89 | 0.723 | 0.642 | 1.21 | 1.23 | 1.3 | 1.23 | 1.16 | 0.479 | 0.416 | 0.407 | 0.468 | 0.38 |
| NCI-H2023 | 0.321 | 0.347 | 0.365 | 0.39 | 0.424 | 0.866 | 0.681 | 0.789 | 0.699 | 0.839 | 0.626 | 0.718 | 0.533 | 0.738 | 0.575 | 0.421 | 0.407 | 0.391 | 0.353 | 0.322 |
